Experimental data published in patent publication US9475839B2, “Peptide-based inhibitor of interleukin-10 or interferon-gamma signaling” (THE UNITED STATES OF AMERICA, AS REPRESENTED BY THE …, priority 2010, dated 2016).
Where two headings read alike, the source gives them in different places. Positions of bridges follow the written chain, without caps; N, C: chain ends. Non-standard residues stand in square brackets, D forms with d. Residues, ends and D or L forms follow the SMILES beside them. Chains are numbered I, II in the order given. ξ: configuration not given here. *: point of attachment. Palmitoyl = CCCCCCCCCCCCCCCC(=O)*; PEG4 = NCCOCCOCCOCCOCCC(=O)O; Nle = CCCC[C@H](N)C(=O)O; Aib = CC(C)(N)C(=O)O; ξK = NCCCCC(N)C(=O)O

Columns and labels:
mouse mast MC/9 cells = assay: Inhibition of IL10-dependent growth of MC/9 cells, MTT assay, 48 hours; type: cell-based
Experimental: (§1) Cells were exposed to compounds for 48 hours and cell number was determined with the help of MTT assay.
(§2) Cells were exposed to IL10-HF-1 for 48 hours and cell number was determined with the help of MTT assay.
(§3) Peptides designed to mimic conserved regions of the receptor sequences were tested for the ability to inhibit IL10 and IFN-gamma signaling. Inhibition of IL10 signaling was tested in a mouse mast cell line MC/9. […] Abrogation of IFN-gamma signaling or STAT1 activation causes cell death in this cell line.

[1] = tested on: MDA-MB-231 breast cancer cells; assay: Inhibition of IFN-gamma-dependent growth of MDA-MB-231 cells, MTT assay, 48 hours; type: cell-based; conditions: Table 1; MTT assay after 48 hours exposure; concentration causing 50% inhibition in cell growth; read-out: GI50, MDA-MB-231
Experimental: as §1, §2, §3

Structure (SMILES) | GI50 [1] [nM] | also measured
CCCC[C@H](NC(=O)[C@H](Cc1ccc(O)cc1)NC(=O)[C@H](C)NC(=O)[C@H](CCC(=O)O)NC(=O)[C@@H](NC(=O)[C@H](Cc1ccc(O)cc1)NC(=O)[C@H](CC(N)=O)NC(=O)[C@@H](NC(=O)[C@H](Cc1ccccc1)NC(=O)[C@@H](NC(=O)[C@H](CC(=O)O)NC(=O)[C@H](Cc1ccccc1)NC(=O)[C@H](CCC(=O)O)NC(=O)[C@H](CO)NC(=O)C(C)(C)NC(C)=O)[C@@H](C)CC)[C@@H](C)CC)[C@@H](C)CC)C(=O)NCCOCCOCCOCCOCCC(=O)NCCCCC(NC(=O)CCOCCOCCOCCOCCNC(=O)[C@H](CCCC)NC(=O)[C@H](Cc1ccc(O)cc1)NC(=O)[C@H](C)NC(=O)[C@H](CCC(=O)O)NC(=O)[C@@H](NC(=O)[C@H](Cc1ccc(O)cc1)NC(=O)[C@H](CC(N)=O)NC(=O)[C@@H](NC(=O)[C@H](Cc1ccccc1)NC(=O)[C@@H](NC(=O)[C@H](CC(=O)O)NC(=O)[C@H](Cc1ccccc1)NC(=O)[C@H](CCC(=O)O)NC(=O)[C@H](CO)NC(=O)C(C)(C)NC(C)=O)[C@@H](C)CC)[C@@H](C)CC)[C@@H](C)CC)C(N)=O (some centres unmarked) [IL10-HF-1] (I: Ac-[Aib]SEFDIFINYIEAY[Nle][PEG4][ξK]-NH2 / II: Ac-[Aib]SEFDIFINYIEAY[Nle][PEG4]; amide I:17-II:C) | – | GI50 (mouse mast MC/9 cells; FIG. 2, 48 hours exposure, MTT assay, read-out: GI50, IL10 dependent growth of MC/9): 50 nM
CCCCCCCCCCCCCCCC(=O)N[C@@H](CC(C)C)C(=O)N[C@@H](Cc1c[nH]cn1)C(=O)NCC(=O)N[C@@H](CO)C(=O)N[C@H](C(=O)N[C@@H](CC(=O)O)C(=O)N[C@@H](CO)C(=O)NCC(=O)N[C@@H](Cc1ccccc1)C(=O)NCC(=O)N[C@@H](CO)C(=O)N[C@H](C(=O)N[C@@H](CCCCN)C(=O)N1CCC[C@H]1C(=O)N[C@@H](CO)C(=O)N[C@@H](CC(C)C)C(=O)N[C@@H](CCC(N)=O)C(=O)N[C@H](C(=O)O)[C@@H](C)O)[C@@H](C)O)[C@@H](C)O [IL10R1-5, Pal-LHGSTDSGFGSTKPSLQT] (Palmitoyl-LHGSTDSGFGSTKPSLQT-OH; N-terminus and C-terminus assumed) | – | GI50 (mouse mast MC/9 cells; 48 h): 1000 nM

Continued, in another order:

GI50 [1] [nM] | Structure (SMILES) | also measured
1000 | CCCCCCCCCCCCCCCC(=O)NCCCC[C@@H](NC(=O)[C@@H](CCCCN)NC(=O)[C@@H](CC(C)C)NC(=O)[C@H]1CCCN1C(=O)[C@@H](CO)NC(=O)[C@H](NC(=O)[C@@H](CC(C)C)NC(=O)[C@@H](CC(C)C)NC(=O)[C@@H](Cc1ccccc1)NC(=O)[C@@H](CCCCN)NC(=O)[C@@H](CCCCN)NC(=O)[C@H]1CCCN1C(=O)[C@@H](CO)NC(C)=O)C(C)C)C(N)=O [IL10R1-9, Ac-SPKKFLLVSPLKK-ε-Pal] (Ac-[dS][dP][dK][dK][dF][dL][dL][dV][dS][dP][dL][dK][dK](Palmitoyl)-NH2; C-terminus assumed) | –
1000 | CCCCCCCCCCCCCCCC(=O)NCCCC[C@@H](NC(=O)[C@@H](CCCCN)NC(=O)[C@@H](CC(C)C)NC(=O)[C@H]1CCCN1C(=O)[C@@H](CO)NC(=O)[C@H](NC(=O)[C@@H](CC(C)C)NC(=O)[C@@H](CC(C)C)NC(=O)[C@@H](Cc1ccccc1)NC(=O)[C@@H](CCCCN)NC(=O)[C@@H](CCCCN)NC(C)=O)C(C)C)C(N)=O [IL10R1-10, Ac-KKFLLVSPLKK-ε-Pal] (Ac-[dK][dK][dF][dL][dL][dV][dS][dP][dL][dK][dK](Palmitoyl)-NH2; C-terminus assumed) | –
1000 | CCCCCCCCCCCCCCCC(=O)NCCCC[C@@H](NC(=O)[C@@H](CCCCN)NC(=O)[C@@H](CC(C)C)NC(=O)[C@H]1CCCN1C(=O)[C@@H](CO)NC(=O)[C@H](NC(=O)[C@@H](CC(C)C)NC(=O)[C@@H](CC(C)C)NC(=O)[C@@H](Cc1ccccc1)NC(=O)[C@@H](CCCCN)NC(=O)[C@@H](CCCCN)NC(=O)[C@H]1CCCN1C(C)=O)C(C)C)C(N)=O [IL10R1-11, Ac-PKKFLLVSPLKK-ε-Pal] (Ac-[dP][dK][dK][dF][dL][dL][dV][dS][dP][dL][dK][dK](Palmitoyl)-NH2; C-terminus assumed) | –
